We go through two compounds from US8217024B2, “Conjugated estrogen compositions, applicators, kits, and methods of making and use thereof” (Teva Women's Health, Inc., priority 2005, dated 2012).

A short description of the series: Spreadability study (125 g load on 2 g product between two petri plates). It counts as physicochemical. Particulars: 15 minutes after 125 g load on 2 g of product. The procedure:
Spreadability studies were also performed for the formulations described in Table 4. Spreadability studies were conducted by applying a 125 g weight load on 2 g of product placed between two petri plates. The weight was placed on the petri plate over the product and the mean diameter of spreading was monitored over 1, 5, and 15 minutes. Based upon the mean spread diameter, the spread area was calculated. See, e.g., De Paula et al., Drug Dev Ind Pharm 24(3): 235-241 (1998). The results for spreadability are indicated in Table 5 for spread area at 15 minutes after the 125 g load was applied.

As to `OCC(O)CO` [Glycerin], the “% Spread as compared to estimated human vaginal surface area (87.5 cm^2)” value is 80.2% and the “Spread Area (cm^2)” value is 70.2 cm^2.
The corresponding values for `O` [Water] are 89.4% and 78.2 cm^2.
